Laboratory results published in patent publication US12685735B2 (Foghorn Therapeutics Inc., priority 2020, dated 2026).
Like-named read-outs stand apart in the source and are kept apart here.

Tests used:
[1] = target: BRM (Homo sapiens, UniProt P51531); experiment: ATPase catalytic activity assay of BRM (ADP-Glo); format: biochemical; conditions: for IC50: read-out: BRM IC50 (μM)*
In short: (§1)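 Measurement is luminescence, reflecting ADP produced by ATPase turnover. The two-step ADP-Glo detection consists of ATP depletion for 40 min and ADP-to-ATP conversion with luciferase for 60 min, both at room temperature.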

[2] = target: BRG-1 (Homo sapiens, UniProt P51532); experiment: ATPase catalytic activity assay of BRG-1 (ADP-Glo); format: biochemical; conditions: ATPase catalytic activity, ADP-Glo; for IC50: read-out: BRG1 IC50 (μM)*; for Emax: read-out: BRG1 Max % Inhibition
BRG-1, sequence (P51532 whole entry): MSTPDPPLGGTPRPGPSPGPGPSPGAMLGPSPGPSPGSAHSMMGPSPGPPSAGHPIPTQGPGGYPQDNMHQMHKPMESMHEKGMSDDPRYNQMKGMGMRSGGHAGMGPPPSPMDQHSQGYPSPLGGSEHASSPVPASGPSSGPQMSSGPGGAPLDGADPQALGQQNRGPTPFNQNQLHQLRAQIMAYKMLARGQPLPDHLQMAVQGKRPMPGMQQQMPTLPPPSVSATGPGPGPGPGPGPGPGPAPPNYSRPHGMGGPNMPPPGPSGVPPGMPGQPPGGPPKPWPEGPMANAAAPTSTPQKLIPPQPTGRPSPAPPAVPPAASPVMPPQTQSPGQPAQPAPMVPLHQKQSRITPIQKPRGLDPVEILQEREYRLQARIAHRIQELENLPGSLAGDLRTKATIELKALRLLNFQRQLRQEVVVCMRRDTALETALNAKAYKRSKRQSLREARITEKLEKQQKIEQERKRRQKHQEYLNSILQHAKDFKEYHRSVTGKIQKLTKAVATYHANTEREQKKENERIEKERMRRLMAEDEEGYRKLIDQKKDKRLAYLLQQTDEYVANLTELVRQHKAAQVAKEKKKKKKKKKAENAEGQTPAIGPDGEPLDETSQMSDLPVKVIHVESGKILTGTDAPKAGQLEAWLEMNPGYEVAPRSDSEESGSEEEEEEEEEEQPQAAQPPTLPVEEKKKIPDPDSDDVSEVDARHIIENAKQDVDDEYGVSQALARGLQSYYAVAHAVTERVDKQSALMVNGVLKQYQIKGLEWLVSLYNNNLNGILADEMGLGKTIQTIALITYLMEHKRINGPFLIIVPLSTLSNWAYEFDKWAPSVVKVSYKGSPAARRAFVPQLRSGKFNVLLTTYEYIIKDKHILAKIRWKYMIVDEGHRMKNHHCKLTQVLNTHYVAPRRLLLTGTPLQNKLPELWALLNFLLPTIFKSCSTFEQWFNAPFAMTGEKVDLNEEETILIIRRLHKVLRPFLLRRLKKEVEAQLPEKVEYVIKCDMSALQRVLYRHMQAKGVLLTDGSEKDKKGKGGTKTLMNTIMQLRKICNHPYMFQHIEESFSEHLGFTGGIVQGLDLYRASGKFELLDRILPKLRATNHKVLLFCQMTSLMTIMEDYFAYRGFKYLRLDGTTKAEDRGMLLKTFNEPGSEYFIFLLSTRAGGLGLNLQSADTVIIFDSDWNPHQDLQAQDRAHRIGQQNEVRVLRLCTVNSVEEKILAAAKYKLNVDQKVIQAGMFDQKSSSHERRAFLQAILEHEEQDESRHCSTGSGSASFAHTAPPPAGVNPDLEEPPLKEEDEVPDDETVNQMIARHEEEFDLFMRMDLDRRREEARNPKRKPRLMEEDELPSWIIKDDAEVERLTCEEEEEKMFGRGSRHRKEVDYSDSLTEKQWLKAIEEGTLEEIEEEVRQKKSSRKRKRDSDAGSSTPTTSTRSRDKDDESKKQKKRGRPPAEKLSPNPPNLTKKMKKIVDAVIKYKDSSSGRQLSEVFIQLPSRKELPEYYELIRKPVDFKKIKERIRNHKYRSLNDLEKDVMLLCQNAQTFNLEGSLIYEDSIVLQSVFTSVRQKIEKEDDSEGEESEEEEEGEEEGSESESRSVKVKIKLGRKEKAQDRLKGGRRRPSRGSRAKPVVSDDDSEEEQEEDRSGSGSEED
In short: as §1

BRM, sequence (P51531 whole entry): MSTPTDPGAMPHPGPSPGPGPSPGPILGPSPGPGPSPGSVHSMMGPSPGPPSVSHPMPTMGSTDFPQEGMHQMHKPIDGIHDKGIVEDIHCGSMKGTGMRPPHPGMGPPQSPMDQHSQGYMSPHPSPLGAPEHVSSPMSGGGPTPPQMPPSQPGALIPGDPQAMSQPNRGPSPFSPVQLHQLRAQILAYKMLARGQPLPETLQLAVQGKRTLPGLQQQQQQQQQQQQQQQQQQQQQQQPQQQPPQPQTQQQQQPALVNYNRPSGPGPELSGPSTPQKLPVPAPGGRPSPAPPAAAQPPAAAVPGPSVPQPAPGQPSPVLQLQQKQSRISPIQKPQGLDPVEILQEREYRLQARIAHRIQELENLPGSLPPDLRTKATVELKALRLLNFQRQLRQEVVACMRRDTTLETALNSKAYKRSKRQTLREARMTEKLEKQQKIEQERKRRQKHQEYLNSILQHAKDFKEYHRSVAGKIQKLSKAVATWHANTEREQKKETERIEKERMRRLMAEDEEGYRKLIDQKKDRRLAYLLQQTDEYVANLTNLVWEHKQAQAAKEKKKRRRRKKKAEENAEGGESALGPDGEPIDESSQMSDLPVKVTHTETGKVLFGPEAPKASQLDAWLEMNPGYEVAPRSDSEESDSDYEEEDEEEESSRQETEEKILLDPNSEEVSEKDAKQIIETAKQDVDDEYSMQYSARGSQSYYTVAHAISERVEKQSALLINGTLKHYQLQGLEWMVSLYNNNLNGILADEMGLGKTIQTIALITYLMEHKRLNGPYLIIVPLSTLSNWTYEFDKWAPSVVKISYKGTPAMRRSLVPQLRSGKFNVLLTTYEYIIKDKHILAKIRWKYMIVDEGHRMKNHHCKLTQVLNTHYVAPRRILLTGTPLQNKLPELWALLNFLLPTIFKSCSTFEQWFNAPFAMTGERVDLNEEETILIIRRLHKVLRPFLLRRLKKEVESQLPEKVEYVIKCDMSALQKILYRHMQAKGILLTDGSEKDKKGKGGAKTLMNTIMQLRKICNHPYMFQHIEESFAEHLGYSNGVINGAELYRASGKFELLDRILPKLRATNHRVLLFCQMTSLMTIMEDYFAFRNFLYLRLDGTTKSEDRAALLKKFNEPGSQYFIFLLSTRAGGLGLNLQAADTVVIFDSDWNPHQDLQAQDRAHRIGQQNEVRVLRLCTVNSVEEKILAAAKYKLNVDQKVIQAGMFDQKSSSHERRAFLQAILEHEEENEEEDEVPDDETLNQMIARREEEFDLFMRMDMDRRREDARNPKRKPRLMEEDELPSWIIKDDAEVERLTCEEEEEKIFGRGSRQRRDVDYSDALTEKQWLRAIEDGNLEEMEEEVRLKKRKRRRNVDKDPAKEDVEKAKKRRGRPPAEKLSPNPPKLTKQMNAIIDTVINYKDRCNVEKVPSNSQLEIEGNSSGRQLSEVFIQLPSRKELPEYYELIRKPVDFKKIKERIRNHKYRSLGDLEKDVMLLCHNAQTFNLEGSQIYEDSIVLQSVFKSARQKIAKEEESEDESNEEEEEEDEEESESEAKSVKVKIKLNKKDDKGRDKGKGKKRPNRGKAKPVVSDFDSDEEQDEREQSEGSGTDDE

Compound | BRM Max % Inhibition [1] | IC50 [1] | IC50 [2] | Emax [2] | BRM Max % Inhibition ([1]; 30 nM BRM, 400 μM ATP) | IC50 ([1]; 30 nM BRM, 400 μM ATP) | IC50 ([2]; 30 nM BRG-1, 400 μM ATP) | Emax ([2]; 30 nM BRG-1, 400 μM ATP) | BRG1 Max % Inhibition [2]
Cc1cc(C(=O)NCC(=O)Nc2nc(-c3cccc(-c4ccncc4)c3)cs2)cc(C(C)(C)CN)c1C [Compound 97] | >90% | 0.1 to 1 µM | 1 to 5 µM | > 70% |  |  |  |  | 
C[Si](C)(C)c1cccc(C(=O)NCC(=O)Nc2nc(-c3cccc(-c4ccncc4)c3)cs2)c1 [Compound 248, N-[2-oxo-2-[[4-[3-(4-pyridyl)phenyl]thiazol-2-yl]amino]ethyl]-3-trimethylsilyl-benzamide] | >40% | 0.1 to 1 µM | 1 to 5 µM | > 30% |  |  |  |  | 
CC(C)S(=O)(=O)c1cccc(C(=O)NCC(=O)Nc2nc(-c3cc(C#N)cc(-c4ccc(CN)cc4)c3)cs2)c1 [Compound 33, N-[2-[[4-[3-[4-(aminomethyl)phenyl]-5-cyano-phenyl]thiazol-2-yl]amino]-2-oxo-ethyl]-3-isopropylsulfonyl-benzamide] | >70% | > 5 µM | > 5 µM | > 80% |  |  |  |  | 
COC[C@H](NC(=O)c1cccc(C(C)(C)CN)c1)C(=O)Nc1nc(-c2cccc(-c3ccnc(C)c3)c2)cs1 [Compound 68, (S)-3-(1-amino-2-methylpropan-2-yl)-N-(3-methoxy-1-((4-(3-(2-methylpyridin-4-yl)phenyl)thiazol-2-yl)amino)-1-oxopropan-2-yl)benzamide] | >95% | 0.1 to 1 µM | 0.1 to 1 µM | > 90% |  |  |  |  | 
COc1cccc(-c2csc(NC(=O)CNC(=O)c3ccc4c(c3)C(C)(C#N)CNC4)n2)c1 (centres unmarked) [Compound 311, 4-cyano-N-(2-((4-(3-methoxyphenyl)thiazol-2-yl)amino)-2-oxoethyl)-4-methyl-1,2,3,4-tetrahydroisoquinoline-6-carboxamide] | >95% | 0.1 to 1 µM | 1 to 5 µM | > 95% |  |  |  |  | 
C[C@@H]1CN(c2cccc(-c3csc(NC(=O)CNC(=O)c4cccc(C5(CO)COC5)c4)n3)c2)C[C@H](C)O1 [Compound 168, N-(2-((4-(3-((cis)-2,6-dimethylmorpholino)phenyl)thiazol-2-yl)amino)-2-oxoethyl)-3-(3-(hydroxymethyl)oxetan-3-yl)benzamide] | >90% | 0.1 to 1 µM | > 5 µM | > 50% |  |  |  |  | 
Cc1cc(-c2cccc(-c3csc(NC(=O)CNC(=O)c4cccc(C(C)(C)CN)c4)n3)c2)ncn1 [Compound 98] | >95% | 0.1 to 1 µM | 1 to 5 µM | > 70% |  |  |  |  | 
C[C@@]1(C#N)COCc2ccc(C(=O)NCC(=O)Nc3nc(-c4cccc([C@]56CCOC[C@H]5C6)c4)cs3)cc21 [Compound 295, (R)-N-(2-((4-(3-((1S,6R)-3-oxabicyclo[4.1.0]heptan-6-yl)phenyl)thiazol-2-yl)amino)-2-oxoethyl)-4-cyano-4-methylisochromane-6-carboxamide] | >95% | < 0.1 µM | 0.1 to 1 µM | > 95% |  |  |  |  | 
C[C@@H]1CN(c2cccc(-c3csc(NC(=O)CNC(=O)c4ccc5c(c4)C(C)(C#N)COC5)n3)n2)C[C@H](C)O1 (stereo in doubt) [Compound 421, (S)-4-cyano-N-(2-((4-(6-((cis)-2,6-dimethylmorpholino)pyridin-2-yl)thiazol-2-yl)amino)-2-oxoethyl)-4-methylisochromane-6-carboxamide] |  |  |  |  | >80% | 1 to 5 µM | > 5 µM | > 80% | 
C[C@@H]1CN(c2cccc(-c3csc(NC(=O)CNC(=O)c4cccc5c4OCC[C@@]5(C)C#N)n3)c2)C[C@H](C)O1 [Compound 146, (R)-4-cyano-N-(2-((4-(3-((cis)-2,6-dimethylmorpholino)phenyl)thiazol-2-yl)amino)-2-oxoethyl)-4-methylchroman-8-carboxamide] | >70% | 0.1 to 1 µM | > 5 µM | > 30% |  |  |  |  | 
C[C@@H]1CN(c2cccc(-c3csc(NC(=O)CNC(=O)c4ccc5c(c4)[C@@](C)(O)COC5)n3)c2)C[C@H](C)O1 [Compound 437, (R)-N-(2-((4-(3-((cis)-2,6-dimethylmorpholino)phenyl)thiazol-2-yl)amino)-2-oxoethyl)-4-hydroxy-4-methylisochromane-6-carboxamide] |  |  |  |  | >95% | < 0.1 µM | 0.1 to 1 µM | > 95% | 
CN1CCc2ccc(-c3csc(NC(=O)CNC(=O)c4ccc5c(c4)[C@@](C)(CO)CC5)n3)cc2C1=O [Compound 258, (S)-3-(hydroxymethyl)-3-methyl-N-(2-((4-(2-methyl-1-oxo-1,2,3,4-tetrahydroisoquinolin-7-yl)thiazol-2-yl)amino)-2-oxoethyl)-2,3-dihydro-1H-indene-5-carboxamide] | >80% | 0.1 to 1 µM | 1 to 5 µM |  |  |  |  |  | >60%
CC1(C#N)CCOc2ccc(C(=O)NCC(=O)Nc3nc(-c4cccc(-c5ccncc5)c4)cs3)cc21 (stereo in doubt) [Compound 440, (S)-4-cyano-4-methyl-N-(2-oxo-2-((4-(3-(pyridin-4-yl)phenyl)thiazol-2-yl)amino)ethyl)chromane-6-carboxamide] |  |  |  |  | >95% | < 0.1 µM | < 0.1 µM | > 95% | 
C[C@@H]1CN(c2cccc(-c3csc(NC(=O)CNC(=O)c4cccc([C@@]5(C(F)F)CCOC5)c4)n3)c2)C[C@H](C)O1 [Compound 286, 3-((S)-3-(difluoromethyl)tetrahydrofuran-3-yl)-N-(2-((4-(3-((cis)-2,6-dimethylmorpholino)phenyl)thiazol-2-yl)amino)-2-oxoethyl)benzamide] | >95% | < 0.1 µM | 1 to 5 µM | > 95% |  |  |  |  | 
C[C@@H]1CN(c2cccc(-c3csc(NC(=O)CNC(=O)c4cccc(C5(C#N)COC5)c4)n3)c2)C[C@H](C)O1 [Compound 418, 3-(3-cyanooxetan-3-yl)-N-(2-((4-(3-((cis)-2,6-dimethylmorpholino)phenyl)thiazol-2-yl)amino)-2-oxoethyl)benzamide] |  |  |  |  | >95% | < 0.1 µM | 0.1 to 1 µM | > 95% | 
CC1(c2cccc(C(=O)NCC(=O)Nc3nc(-c4cccc(-c5ccncc5)c4)cs3)c2)CCNC1=O (centres unmarked) [Compound 82, 3-(3-methyl-2-oxopyrrolidin-3-yl)-N-(2-oxo-2-((4-(3-(pyridin-4-yl)phenyl)thiazol-2-yl)amino)ethyl)benzamide] | >95% | 0.1 to 1 µM | 0.1 to 1 µM | > 90% |  |  |  |  | 
C[C@@H]1CN(c2cccc(-c3csc(NC(=O)CNC(=O)c4ccnc(C(C)(C)C)c4)n3)c2)C[C@H](C)O1 [Compound 205, 2-(tert-butyl)-N-(2-((4-(3-((cis)-2,6-dimethylmorpholino)phenyl)thiazol-2-yl)amino)-2-oxoethyl)isonicotinamide] | >95% | 0.1 to 1 µM | 1 to 5 µM | > 70% |  |  |  |  | 
C[C@@H]1CN(c2cc(F)cc(-c3csc(NC(=O)CNC(=O)c4ccc(F)c(C(C)(C)CO)c4)n3)c2)C[C@H](C)O1 [Compound 198, N-(2-((4-(3-((cis)-2,6-dimethylmorpholino)-5-fluorophenyl)thiazol-2-yl)amino)-2-oxoethyl)-4-fluoro-3-(1-hydroxy-2-methylpropan-2-yl)benzamide] | >95% | < 0.1 µM | 0.1 to 1 µM | > 95% |  |  |  |  | 
CC1(C#N)CCOc2ccc(C(=O)NCC(=O)Nc3nc(-c4cccc(C(F)F)c4)cs3)cc21 (stereo in doubt) [Compound 442, (S)-4-cyano-N-(2-((4-(3-(difluoromethyl)phenyl)thiazol-2-yl)amino)-2-oxoethyl)-4-methylchromane-6-carboxamide] |  |  |  |  | >95% | < 0.1 µM | 0.1 to 1 µM | > 95% | 
COc1cccc(-c2csc(NC(=O)CNC(=O)c3ccc4c(c3)C(C)(C#N)CCN4C)n2)c1 (centres unmarked) [Compound 394, 4-cyano-N-(2-((4-(3-methoxyphenyl)thiazol-2-yl)amino)-2-oxoethyl)-1,4-dimethyl-1,2,3,4-tetrahydroquinoline-6-carboxamide] | >80% | 0.1 to 1 µM | > 5 µM | > 80% |  |  |  |  | 
CNc1cc(-c2cccc(-c3csc(NC(=O)CNC(=O)c4cccc(C(C)(C)CN)c4)n3)c2)ccn1 [Compound 57, 3-(1-amino-2-methylpropan-2-yl)-N-(2-((4-(3-(2-(methylamino)pyridin-4-yl)phenyl)thiazol-2-yl)amino)-2-oxoethyl)benzamide] | >95% | < 0.1 µM | 0.1 to 1 µM | > 80% |  |  |  |  | 
Cc1cncc(-c2cccc(-c3csc(NC(=O)CNC(=O)c4ccc5c(c4)[C@](C)(CO)CC5)n3)n2)n1 [Compound 163, (R)-3-(hydroxymethyl)-3-methyl-N-(2-((4-(6-(6-methylpyrazin-2-yl)pyridin-2-yl)thiazol-2-yl)amino)-2-oxoethyl)-2,3-dihydro-1H-indene-5-carboxamide] | >90% | < 0.1 µM | 1 to 5 µM | > 40% |  |  |  |  | 
CC1(CN)CCc2ccc(C(=O)NCC(=O)Nc3nc(-c4cccc(-c5ccncc5)c4)cs3)cc21 (centres unmarked) [Compound 101] | >90% | 0.1 to 1 µM | 1 to 5 µM | > 70% |  |  |  |  | 
